One experiment deals with cytochrome c-CL complex (Homo sapiens, UniProt P99999). The experiment in a line: Cytochrome c/CL peroxidase activity (amplex red). Format: biochemical. The text has this: (§1) The six coordination of the heme in cytochrome c prevents direct interaction of H2O2 with the catalytic metal site, and native cytochrome c in solution is a poor peroxidase. Upon interaction with CL, cytochrome c undergoes a structural change with rupture of the Fe-Met80 coordination. […] The mechanism of action of cytochrome c peroxidase is similar to that of other peroxidases, such as horse radish peroxidase (HRP). Thus it is possible to use the amplex red-HRP reaction to investigate cytochrome c peroxidase activity. In the presence of peroxidase, amplex red (AR) reacts with H2O2 to form the red-fluorescent oxidation product, resorufin (Ex/Em=571/585).
Cytochrome c (2 μM) was mixed with CL (25 μg/ml) and 10 μM H2O2 in 20 mM HEPES, pH 7.4. Amplex red (50 μM) was then added and fluorescence emission monitored in real time using Hitachi F4500 fluorescence spectrophotometer. Addition of amplex red elicited rapid increase in fluorescence signal due to resorufin formation, providing direct evidence for peroxidase activity of cytochrome c/CL complex (FIG. 29A).

The target of another experiment is cyt c heme (Homo sapiens, UniProt P99999). The experiment in a line: Circular dichroism of cyt c Soret band. Format: binding. Conditions: negative peak at 415 nm without peptide; FIG. 4. The method, then:
Circular dichroism (Olis spectropolarimeter, DSM20) was carried out to monitor Soret band (negative peak at 415 nm), as a probe for the π-π* heme environment in cyt c (FIG. 4). […] The increase in π-π* interaction around the heme would enhance electron tunneling which would be favorable for electron diffusion.
A general note: Circular dichroism is the unequal absorption of left and right circularly polarised light.

Another experiment deals with isolated mitochondria. The experiment in a line: ATP synthesis in isolated mitochondria. Format: biochemical, rat. The method, then:
Fresh mitochondria were isolated from rat kidney as described previously. Electron flux was measured by O2 consumption (Oxygraph Clark electrode) as previously described using different substrates for C1 (glutamate/malate), C2 (succinate), and C3 (TMPD/ascorbate). Assays were carried out under low substrate conditions in order to avoid saturating the enzyme reactions. ATP production in isolated mitochondria was determined kinetically using the luciferase method (Biotherma) in a 96-well luminescence plate reader (Molecular Devices). The initial maximal rate for ATP synthesis was determined over the first minute.
The rate of mitochondrial ATP synthesis was determined by measuring ATP in respiration buffer collected from isolated mitochondria 1 min after addition of […] (FIG. 6). ATP was assayed by HPLC. All experiments were carried out in triplicate, with n=3.
SS-20 or SS-31 was added at 100 μM concentrations to isolated mitochondria in respiration buffer containing 0.5 mM succinate (complex II substrate) and 400 μM ADP. Similar increases in O2 consumption were observed when low concentrations of complex I substrates (glutamate/malate) were used (data not shown).
Increase in electron flux in the electron transport chain can either result in increase in ATP synthesis or increase in electron leak and generation of free radicals. ATP synthesis in isolated mitochondria was assayed by HPLC.

The target of experiment [1] is T1, horse radish peroxidase (HRP) (Armoracia rusticana, UniProt P00433).
T1 sequence (P00433 31-338 limits assumed): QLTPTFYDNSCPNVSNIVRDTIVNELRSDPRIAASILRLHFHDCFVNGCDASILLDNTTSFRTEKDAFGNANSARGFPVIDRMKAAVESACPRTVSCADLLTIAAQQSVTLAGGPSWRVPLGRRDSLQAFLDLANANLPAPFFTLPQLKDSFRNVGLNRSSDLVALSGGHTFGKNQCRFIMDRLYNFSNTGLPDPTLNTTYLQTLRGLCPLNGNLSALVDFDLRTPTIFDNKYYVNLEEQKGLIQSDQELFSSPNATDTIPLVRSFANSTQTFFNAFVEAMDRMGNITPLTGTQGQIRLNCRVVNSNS
Briefly: HRP activity (amplex red). Format: biochemical. To be noted: data not shown.
Description: as §1

A further experiment addresses cyt c (Homo sapiens, UniProt P99999). Briefly: Photoluminescence of cyt c (532.8 nm laser excitation). To be noted: excitation 532.8 nm. An excerpt: A light source 140, such as a laser or light-emitting diode (LED), illuminates the doped cyt c layer 110 at an excitation wavelength, such as 532.8 nm. […] (As understood by those skilled in the art, the gap between the valence band and the excited state is […] to the excitation wavelength.) After a short relaxation time, the electron decays from the excited state to a conduction band. When the electron relaxes to valence band from the conduction band, the doped cyt c layer 110 emits a photon at a luminescence wavelength, such as 650 nm, fixed by the gap between the valence and conduction bands.
Thus, as the aromatic-cationic peptide or aromatic-cationic peptide/cardiolipin or cardiolipin concentration in the doped cyt c layer 110 varies due to changes in the pH and/or temperature of the test substrate 130, the intensity at the luminescence wavelength varies as well. Detecting this change in intensity with a photodetector 150 yields an indication of the pH and/or temperature of the test substrate 130.
Photoluminescence (PL) was carried out to examine the effects of SS-31 on the electronic structure of conduction band of the heme of cyt c, an energy state responsible for electronic transport (FIG. 3). A […] laser (532.8 nm) was used to excite electrons in cyt c (FIG. 2A). Strong PL emission in cyt c state can be clearly identified at 650 nm (FIG. 2B).

In experiment [2] the target is heme environment of cytochrome c (with CL) (Homo sapiens, UniProt P99999). Briefly: Soret CD spectrum of cyt C in the presence of CL. Format: binding. Conditions: cyt C 10 μM; CL 30 μg/ml; peptide 10 μM; 20 mM HEPES pH 7.5, 25° C.; FIG. 24. The method, then: Circular dichroism (CD) was carried out to examine the effects of the peptides on protecting the heme environment of cyt C from the acyl chain of CL. For heme proteins, the Soret CD spectrum is strictly correlated with the heme pocket conformation. In particular, the negative 416-420 nm Cotton effect is considered diagnostic of Fe(III)-Met80 coordination in native cyt C (Santucci and Ascoli, 1997). […] CD spectra were obtained using AVIV CD Spectrometer Model 410.
Changes in the Soret CD spectrum of cyt C (10 μM) were recorded in the absence (dotted line) and presence (dashed line) of 30 μg/ml CL, plus addition of different peptides (10 μM) (solid line) (FIG. 24). CD measurements were carried out using 20 mM HEPES, pH 7.5, at 25° C. and expressed as molar ellipticity (θ) (m Deg).

Sequence of cytochrome c-CL complex (P99999 2-105 limits assumed, species assumed, one chain of several): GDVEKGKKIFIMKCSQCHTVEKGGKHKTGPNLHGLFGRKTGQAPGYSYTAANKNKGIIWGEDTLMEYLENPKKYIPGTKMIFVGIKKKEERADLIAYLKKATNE
Sequence of cyt c (P99999 2-105 limits assumed, species assumed): as the sequence (P99999 2-105 limits assumed, species assumed, one chain of several) above
Sequence of heme environment of cytochrome c (with CL) (P99999 2-105 limits assumed, species assumed): as the sequence (P99999 2-105 limits assumed, species assumed, one chain of several) above
Sequence of cyt c heme (P99999 2-105 limits assumed, species assumed): as the sequence (P99999 2-105 limits assumed, species assumed, one chain of several) above

For D-Arg-2′6′Dmt-Lys-Phe-NH2 [SS-31], the “kinetics of cytochrome c peroxidase activity” value at cytochrome c-CL complex (FIG. 29B) is given as “dose-dependently reduced the kinetics of cytochrome c peroxidase activity”. In addition, the “rate of amplex red peroxidation” value at cytochrome c-CL complex (cytochrome c 2 μM, CL 25 μg/ml, 10 μM H2O2, amplex red 50 μM, FIG. 29A) is listed as “decreased the rate of amplex red peroxidation”. In addition, the “peroxidase activity in cytochrome c/CL complex” value on cytochrome c-CL complex (figure legend FIG. 29A-C, comparison at a fixed concentration of 10 μM (FIG. 29C)) was “preventing peroxidase activity in cytochrome c/CL complex”. Also, on cyt c heme, the “position of Soret band negative peak after red shift” value is 440 nm. Besides, the “rate of mitochondrial ATP synthesis” value in the experiment with isolated mitochondria (ATP by HPLC 1 min after addition of 400 mM ADP, FIG. 6) was “dose-dependently increased the rate of ATP synthesis”. For the same substance, the ATP synthesis entry in the experiment with isolated mitochondria (assayed by HPLC, FIG. 27) is “dose-dependently increased ATP synthesis”. In the experiment on isolated mitochondria (mitochondria energized with low concentrations of succinate, FIG. 15), the “rate of ATP production” value is reported as “significant increase in the rate of ATP production”. Besides, the HRP activity result in experiment [1] was “had no effect on HRP activity”. Moreover, the “PL intensity of cyt c at 650 nm” value on cyt c is listed as “increased dose-dependently”. Besides, the “disappearance of the negative Cotton effect caused by CL (heme environment of cytochrome c)” value in experiment [2] is reported as “Protect the Heme Environment of Cytochrome C from the Acyl Chain of CL”.

Values taken from patent publication US20140349941A1, “AROMATIC-CATIONIC PEPTIDES AND USES OF SAME” (Cornell University, priority 2011, published 2014).
